The subject of experiment [1] is HEK293. The experiment in a line: inhibition of NOD1-driven NF-kB reporter – cell-based, luminescence, uHTS, primary screen (AID 1578). It is filed as functional. The settings on record: Homo sapiens.
For experiment [2], the system named is HEK293. The experiment can be described thus: cells. The settings on record: Homo sapiens. It is filed as functional, cell-based.
The subject of experiment [3] is HEK293. The experiment can be described thus: cells. The class given is functional, cell-based. The settings on record: Homo sapiens. The source holds these as a separate data set.
Experiment [4] deals with Nucleotide-binding oligomerization domain-containing protein 2 (Homo sapiens, UniProt Q9HC29). The experiment in a line: inhibition of NOD2-driven NF-kB reporter – cell-based, luminescence, uHTS, HEK293 (AID 1566). It is filed as functional.
Chain of Nucleotide-binding oligomerization domain-containing protein 2 (Q9HC29 whole entry, the tested form may be a part): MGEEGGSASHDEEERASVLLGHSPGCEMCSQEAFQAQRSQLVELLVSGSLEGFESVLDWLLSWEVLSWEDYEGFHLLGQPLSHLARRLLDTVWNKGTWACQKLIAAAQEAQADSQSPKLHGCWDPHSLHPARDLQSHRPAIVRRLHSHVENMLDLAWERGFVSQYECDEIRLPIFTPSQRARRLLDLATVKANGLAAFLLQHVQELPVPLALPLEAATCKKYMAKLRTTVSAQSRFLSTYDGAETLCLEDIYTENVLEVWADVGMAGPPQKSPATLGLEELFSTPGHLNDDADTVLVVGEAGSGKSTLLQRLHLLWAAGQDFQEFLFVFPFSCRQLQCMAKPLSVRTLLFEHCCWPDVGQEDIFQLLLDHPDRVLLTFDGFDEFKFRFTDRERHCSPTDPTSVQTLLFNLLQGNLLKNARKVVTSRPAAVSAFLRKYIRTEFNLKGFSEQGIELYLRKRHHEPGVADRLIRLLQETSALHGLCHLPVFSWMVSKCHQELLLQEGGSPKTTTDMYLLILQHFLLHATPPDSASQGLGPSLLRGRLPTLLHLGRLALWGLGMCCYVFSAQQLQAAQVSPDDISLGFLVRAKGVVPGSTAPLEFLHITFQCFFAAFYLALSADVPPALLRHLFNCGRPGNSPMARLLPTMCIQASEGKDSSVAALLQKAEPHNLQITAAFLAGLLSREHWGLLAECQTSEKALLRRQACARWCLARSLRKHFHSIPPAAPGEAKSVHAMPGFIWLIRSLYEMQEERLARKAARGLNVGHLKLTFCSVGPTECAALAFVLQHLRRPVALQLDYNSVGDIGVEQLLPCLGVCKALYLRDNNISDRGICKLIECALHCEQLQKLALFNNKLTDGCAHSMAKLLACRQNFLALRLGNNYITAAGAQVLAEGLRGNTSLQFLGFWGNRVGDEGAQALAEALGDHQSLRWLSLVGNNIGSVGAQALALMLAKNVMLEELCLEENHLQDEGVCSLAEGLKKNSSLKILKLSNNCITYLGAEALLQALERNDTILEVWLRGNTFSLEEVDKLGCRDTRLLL
Experiment [5] concerns HEK293. The experiment can be described thus: NOD2 signaling inhibitors in MDP-stimulated cells, cell-based, uHTS, luminescence (AID 2001). The settings on record: Homo sapiens. The class given is functional.
Experiment [6] concerns HEK293. The experiment in a line: cells. The class given is functional, cell-based. The settings on record: Homo sapiens. The source holds these as a separate data set.
The target in experiment [7] is T1, Microphthalmia-associated transcription factor (Homo sapiens, UniProt O75030).
T1 sequence (O75030 whole entry): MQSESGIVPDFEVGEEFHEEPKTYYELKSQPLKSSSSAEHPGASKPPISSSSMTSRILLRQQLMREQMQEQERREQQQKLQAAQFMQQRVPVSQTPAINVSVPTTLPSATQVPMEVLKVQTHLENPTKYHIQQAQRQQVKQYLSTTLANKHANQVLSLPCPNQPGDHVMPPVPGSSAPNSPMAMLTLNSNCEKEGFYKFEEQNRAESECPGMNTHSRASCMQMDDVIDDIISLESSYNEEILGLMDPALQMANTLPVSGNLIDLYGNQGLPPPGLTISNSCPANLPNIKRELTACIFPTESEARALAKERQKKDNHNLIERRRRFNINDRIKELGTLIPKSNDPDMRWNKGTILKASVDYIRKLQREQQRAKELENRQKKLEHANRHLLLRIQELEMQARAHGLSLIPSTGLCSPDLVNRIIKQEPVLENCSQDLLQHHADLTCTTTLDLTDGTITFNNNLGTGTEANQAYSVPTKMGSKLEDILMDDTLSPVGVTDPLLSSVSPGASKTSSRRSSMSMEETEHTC
The experiment in a line: reducers of TRPM1 reporter luminescence, concentration series – cell-based, SK-MEL-5, cherry-picked, set 3, MITF inhibitor project, dose response (AID 493073).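 Further: SK-MEL-5 melanoma cells with luciferase driven by the MITF target TRPM1 promoter.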 It is filed as functional.

Experiment [8] relates to Vero. The experiment can be described thus: cells. The class given is functional, cell-based. The settings on record: Chlorocebus sabaeus.
For experiment [9], the system named is A-375. The experiment can be described thus: MITF: Counter assay: A375 proliferation Measured in Cell-Based System Using Plate Reader - 2084-03_Inhibitor_Dose_DryPowder_Activity. [Related pubchem assays (depositor defined):AID488944]. The class given is functional. The settings on record: Homo sapiens.
Experiment [10] deals with Vero. The experiment in a line: cells. It is filed as functional. The settings on record: Chlorocebus sabaeus.
The nature of experiment [11]: luciferase reporter signal suppression in cells – H4 neuroglioma cells, luminescence, dose response (AID 1990). The class given is functional, cell-based.
A short description of experiment [12]: luciferase reporter signal reduction – luminescence, H4-C neuroglioblastoma cells, dose response (AID 2458).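 Further: H4 neuroglioblastoma cells stably carrying a luciferase reporter gene fusion.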 The class given is functional, cell-based. Background: Reporter assays use an easily measured gene product as a stand-in for the process of interest.
The next experiment can be described thus: cells. The class given is functional, cell-based.
Experiment [13] can be described thus: Luminescence Cell-Based Dose Response HTS to Identify Inhibitors of 5'UTR Stem-Loop Driven Prion Protein mRNA Translation in H4 Neuroglioblastoma Cells. [Related pubchem assays: 1827 (Project Summary), 1813 (Primary HTS)]. The class given is functional.
Experiment [14] is described as follows: alpha-synuclein stem-loop luciferase translation blockers – H4 neuroglioma cells, luminescence, confirmation (AID 1988). The class given is functional, cell-based.
Experiment [15] is described as follows: alpha-synuclein stem-loop translation blockers – luminescence, H4 neuroglioblastoma cells, dose confirmation, confirmation (AID 2454).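 Further: H4 neuroglioblastoma cells carrying an alpha-synuclein 5'UTR luciferase reporter; potency for inhibition of the luciferase signal.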 The class given is functional, cell-based.
Experiment [16] can be described thus: HEK-293T cell viability reduction – luminescence, B-cell screen hits, cytotoxicity control for BCR NF-kB inhibitor project, dose response (AID 489021).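 Further: HEK-293T cells carrying an NF-kB luciferase reporter; cells exposed to compound for about 14 hours before viability readout.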 It is filed as functional, cell-based.
Experiment [17] relates to A-375. The experiment in a line: proliferation inhibition in MITF-low A375 cells – cell-based, cherry-pick samples, set 2, counter-screen for MITF modulator project, dose response (AID 540335). The settings on record: Homo sapiens. The class given is functional. (A counterscreen serves to expose hits that act by an unwanted route or on another target.)
The target in experiment [18] is T2, Voltage-gated N-type calcium channel alpha-1B subunit/Amyloid beta A4 precursor protein-binding family A member 1 (Homo sapiens, UniProt Q00975+Q02410). The class given is protein assay.
T2 sequence (Q00975 whole entry): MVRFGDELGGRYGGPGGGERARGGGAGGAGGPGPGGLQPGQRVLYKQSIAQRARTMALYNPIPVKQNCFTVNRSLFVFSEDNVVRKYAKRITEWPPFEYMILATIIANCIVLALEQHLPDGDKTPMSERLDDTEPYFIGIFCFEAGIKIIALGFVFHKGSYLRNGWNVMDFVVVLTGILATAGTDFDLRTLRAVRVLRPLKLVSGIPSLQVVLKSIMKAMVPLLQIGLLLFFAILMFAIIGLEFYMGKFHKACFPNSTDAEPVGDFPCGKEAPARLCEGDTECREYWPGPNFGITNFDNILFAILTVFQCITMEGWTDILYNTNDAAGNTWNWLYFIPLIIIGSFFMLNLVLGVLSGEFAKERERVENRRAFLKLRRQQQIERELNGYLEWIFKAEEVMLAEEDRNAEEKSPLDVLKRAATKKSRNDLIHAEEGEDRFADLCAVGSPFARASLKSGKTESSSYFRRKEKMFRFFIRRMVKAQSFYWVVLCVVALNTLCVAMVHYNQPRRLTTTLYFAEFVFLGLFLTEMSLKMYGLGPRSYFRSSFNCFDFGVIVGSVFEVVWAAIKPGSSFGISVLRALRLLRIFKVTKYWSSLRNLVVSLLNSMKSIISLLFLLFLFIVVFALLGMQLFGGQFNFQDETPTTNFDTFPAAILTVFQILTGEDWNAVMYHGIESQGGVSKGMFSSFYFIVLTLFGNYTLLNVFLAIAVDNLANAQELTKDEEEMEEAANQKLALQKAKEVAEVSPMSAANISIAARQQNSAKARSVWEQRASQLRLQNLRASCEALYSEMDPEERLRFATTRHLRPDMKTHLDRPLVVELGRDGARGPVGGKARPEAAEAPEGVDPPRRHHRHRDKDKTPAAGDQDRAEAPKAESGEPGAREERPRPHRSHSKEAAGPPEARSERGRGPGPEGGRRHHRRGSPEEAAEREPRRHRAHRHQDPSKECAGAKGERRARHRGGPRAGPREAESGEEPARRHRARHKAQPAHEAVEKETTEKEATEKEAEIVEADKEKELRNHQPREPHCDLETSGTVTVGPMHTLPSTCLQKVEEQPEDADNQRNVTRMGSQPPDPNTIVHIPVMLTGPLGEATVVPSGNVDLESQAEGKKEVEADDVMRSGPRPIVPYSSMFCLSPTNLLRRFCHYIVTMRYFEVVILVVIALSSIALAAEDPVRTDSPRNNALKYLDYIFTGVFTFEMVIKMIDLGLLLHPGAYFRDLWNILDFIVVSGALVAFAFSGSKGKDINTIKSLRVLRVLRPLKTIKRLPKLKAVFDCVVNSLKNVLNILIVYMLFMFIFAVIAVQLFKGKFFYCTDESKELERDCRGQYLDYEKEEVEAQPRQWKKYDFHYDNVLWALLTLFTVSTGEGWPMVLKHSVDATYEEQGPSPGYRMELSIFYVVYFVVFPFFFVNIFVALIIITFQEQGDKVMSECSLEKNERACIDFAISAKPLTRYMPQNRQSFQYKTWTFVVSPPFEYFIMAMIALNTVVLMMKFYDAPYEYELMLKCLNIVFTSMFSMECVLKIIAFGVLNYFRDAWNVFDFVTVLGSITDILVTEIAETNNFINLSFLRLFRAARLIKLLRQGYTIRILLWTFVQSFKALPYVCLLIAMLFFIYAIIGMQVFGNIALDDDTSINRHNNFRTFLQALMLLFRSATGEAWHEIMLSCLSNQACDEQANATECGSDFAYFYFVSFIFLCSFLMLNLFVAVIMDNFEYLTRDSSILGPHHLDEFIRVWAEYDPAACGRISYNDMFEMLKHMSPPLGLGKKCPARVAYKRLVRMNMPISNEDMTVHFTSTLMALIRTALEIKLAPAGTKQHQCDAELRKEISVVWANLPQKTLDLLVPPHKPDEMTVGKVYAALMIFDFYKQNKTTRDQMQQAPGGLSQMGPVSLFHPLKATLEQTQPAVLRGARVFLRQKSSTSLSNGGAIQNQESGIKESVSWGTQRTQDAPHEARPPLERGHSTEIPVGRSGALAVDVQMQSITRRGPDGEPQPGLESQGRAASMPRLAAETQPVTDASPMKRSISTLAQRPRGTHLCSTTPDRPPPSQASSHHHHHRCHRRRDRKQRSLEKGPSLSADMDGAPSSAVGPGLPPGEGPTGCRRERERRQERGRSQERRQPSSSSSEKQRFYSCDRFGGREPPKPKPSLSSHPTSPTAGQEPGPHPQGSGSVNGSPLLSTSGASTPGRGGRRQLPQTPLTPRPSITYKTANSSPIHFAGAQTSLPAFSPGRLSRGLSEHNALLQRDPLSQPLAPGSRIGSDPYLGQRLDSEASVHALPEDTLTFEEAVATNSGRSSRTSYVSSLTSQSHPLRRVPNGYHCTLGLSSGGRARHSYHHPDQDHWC
T2 sequence (Q02410 whole entry): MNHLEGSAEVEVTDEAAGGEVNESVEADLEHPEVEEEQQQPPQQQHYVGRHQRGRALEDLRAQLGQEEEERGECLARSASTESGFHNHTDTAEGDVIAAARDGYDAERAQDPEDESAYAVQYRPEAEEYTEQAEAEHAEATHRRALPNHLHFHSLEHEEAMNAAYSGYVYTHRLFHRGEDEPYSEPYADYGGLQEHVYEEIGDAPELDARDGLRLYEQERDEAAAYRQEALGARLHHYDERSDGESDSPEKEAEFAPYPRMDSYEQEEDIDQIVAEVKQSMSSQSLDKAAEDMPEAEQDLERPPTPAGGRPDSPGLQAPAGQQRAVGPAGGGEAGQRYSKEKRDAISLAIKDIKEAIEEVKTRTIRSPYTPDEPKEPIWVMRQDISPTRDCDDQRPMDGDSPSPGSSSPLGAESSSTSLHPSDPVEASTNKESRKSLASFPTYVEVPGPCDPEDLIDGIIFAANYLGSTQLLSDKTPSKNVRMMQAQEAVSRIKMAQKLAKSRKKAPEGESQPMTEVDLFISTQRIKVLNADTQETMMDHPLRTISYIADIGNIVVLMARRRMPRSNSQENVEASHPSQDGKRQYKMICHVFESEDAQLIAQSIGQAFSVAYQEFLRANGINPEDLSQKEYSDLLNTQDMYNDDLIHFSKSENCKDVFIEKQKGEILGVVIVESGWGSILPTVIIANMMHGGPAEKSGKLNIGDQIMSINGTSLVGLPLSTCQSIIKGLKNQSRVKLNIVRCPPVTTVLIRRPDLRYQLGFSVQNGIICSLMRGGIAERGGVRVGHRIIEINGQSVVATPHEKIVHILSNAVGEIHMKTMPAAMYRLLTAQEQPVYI
The target in experiment [19] is T2, Voltage-gated N-type calcium channel alpha-1B subunit/Amyloid beta A4 precursor protein-binding family A member 1. The class given is protein assay. This is another data set of the same source.
Experiment [20] has as its target T3, Neuropeptides B/W receptor type 1 (Homo sapiens, UniProt P48145).
T3 sequence (P48145 whole entry): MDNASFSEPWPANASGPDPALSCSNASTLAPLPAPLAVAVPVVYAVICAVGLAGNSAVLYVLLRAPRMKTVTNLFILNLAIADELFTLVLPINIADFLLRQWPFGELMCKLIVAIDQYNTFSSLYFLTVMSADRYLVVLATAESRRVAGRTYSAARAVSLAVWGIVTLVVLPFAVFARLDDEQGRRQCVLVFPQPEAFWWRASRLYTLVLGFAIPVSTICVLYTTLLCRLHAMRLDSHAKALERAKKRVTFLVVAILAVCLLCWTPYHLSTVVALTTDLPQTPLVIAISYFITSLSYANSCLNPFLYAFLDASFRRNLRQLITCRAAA
The experiment in a line: Fluorescence-based dose response cell-based high throughput screening assay to identify antagonists of the G-protein coupled receptor 7 (GPR7). [Related pubchem assays: 1952 (Screening assay (GPR7 antagonists).), 1880 (Summary AID.)]. It is filed as functional.

Experiment [21] has as its target Melanin-concentrating hormone receptor 1 (Homo sapiens, UniProt Q99705). The experiment can be described thus: Fluorescence-based counterscreen for antagonists of the G-protein coupled receptor 7 (GPR7): cell-based high throughput dose response assay to identify antagonists of the melanin-concentrating hormone receptor 1 (MCHR1). It is filed as functional.
The next experiment concerns the target T4, CAAX prenyl protease 2 (Saccharomyces cerevisiae S288c, UniProt Q03530).
T4 sequence (Q03530 whole entry): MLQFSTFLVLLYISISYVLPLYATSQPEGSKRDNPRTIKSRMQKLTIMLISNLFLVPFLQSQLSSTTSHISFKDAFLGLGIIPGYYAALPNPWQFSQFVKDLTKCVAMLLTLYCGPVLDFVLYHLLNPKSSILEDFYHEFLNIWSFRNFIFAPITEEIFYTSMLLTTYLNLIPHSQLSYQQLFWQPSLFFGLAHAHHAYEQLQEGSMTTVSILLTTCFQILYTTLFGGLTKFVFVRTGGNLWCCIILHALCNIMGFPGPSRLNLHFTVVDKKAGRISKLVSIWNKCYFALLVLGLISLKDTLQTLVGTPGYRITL
It is filed as biochemical.

The target of experiment [22] is Eukaryotic translation initiation factor 4E (Mus musculus, UniProt P63073). The experiment in a line: blockers of eIF4G binding by eIF4E – biochemical, TR-FRET, dose response (AID 855).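 Further: potency for disrupting eIF4E binding to eIF4GI seen as loss of FRET.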 The class given is functional. Background: Time-resolved FRET reads energy transfer from a long-lived donor to a nearby acceptor.
Chain of Eukaryotic translation initiation factor 4E (P63073 whole entry): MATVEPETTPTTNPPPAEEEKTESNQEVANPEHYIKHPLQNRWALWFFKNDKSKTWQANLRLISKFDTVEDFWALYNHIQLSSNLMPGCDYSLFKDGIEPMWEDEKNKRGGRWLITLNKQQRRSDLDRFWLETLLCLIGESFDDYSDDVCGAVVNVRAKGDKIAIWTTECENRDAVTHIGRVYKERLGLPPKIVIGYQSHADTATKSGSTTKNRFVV
In experiment [23] the target is Alkaline phosphatase, placental type (Homo sapiens, UniProt P05187). The experiment can be described thus: human placental alkaline phosphatase inhibition – biochemical, luminescence, confirmation (AID 1512). The class given is functional.
Chain of Alkaline phosphatase, placental type (P05187 whole entry): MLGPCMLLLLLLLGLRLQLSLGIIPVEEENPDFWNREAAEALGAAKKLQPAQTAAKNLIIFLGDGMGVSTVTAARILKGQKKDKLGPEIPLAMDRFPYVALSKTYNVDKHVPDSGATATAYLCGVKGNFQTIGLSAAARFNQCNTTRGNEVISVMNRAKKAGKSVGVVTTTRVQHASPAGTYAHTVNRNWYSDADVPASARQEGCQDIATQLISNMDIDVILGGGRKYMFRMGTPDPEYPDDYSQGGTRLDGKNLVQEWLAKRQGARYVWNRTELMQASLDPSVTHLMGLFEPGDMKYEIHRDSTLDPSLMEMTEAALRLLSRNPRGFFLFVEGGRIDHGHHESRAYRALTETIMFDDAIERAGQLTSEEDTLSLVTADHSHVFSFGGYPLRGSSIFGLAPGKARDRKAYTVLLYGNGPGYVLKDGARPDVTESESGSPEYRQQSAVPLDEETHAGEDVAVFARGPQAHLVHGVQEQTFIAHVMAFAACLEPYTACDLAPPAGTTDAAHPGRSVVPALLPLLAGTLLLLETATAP
The target of experiment [24] is T5, Alkaline phosphatase, tissue-nonspecific isozyme (Homo sapiens, UniProt P05186).
T5 sequence (P05186 whole entry): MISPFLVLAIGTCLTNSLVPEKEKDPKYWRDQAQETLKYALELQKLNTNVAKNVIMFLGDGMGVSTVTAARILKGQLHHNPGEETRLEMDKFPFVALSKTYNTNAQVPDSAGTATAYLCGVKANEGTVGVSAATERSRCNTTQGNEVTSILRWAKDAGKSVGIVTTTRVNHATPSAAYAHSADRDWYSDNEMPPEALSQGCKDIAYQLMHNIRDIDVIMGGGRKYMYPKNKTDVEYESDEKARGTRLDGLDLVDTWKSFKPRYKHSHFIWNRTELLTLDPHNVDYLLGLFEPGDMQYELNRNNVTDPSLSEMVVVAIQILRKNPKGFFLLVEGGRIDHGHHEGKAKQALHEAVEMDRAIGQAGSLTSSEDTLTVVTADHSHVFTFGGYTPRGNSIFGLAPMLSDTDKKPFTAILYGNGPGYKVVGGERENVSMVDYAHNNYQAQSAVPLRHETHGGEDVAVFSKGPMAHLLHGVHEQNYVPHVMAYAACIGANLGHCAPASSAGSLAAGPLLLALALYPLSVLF
The experiment in a line: potency against alkaline phosphatase TNAP – biochemical, luminescent, dose response, SAR follow-up (AID 1056).

The source made the active and inactive calls.

Turning to `CC1CCCCC1NC(=O)/C(C#N)=C/C=C/c1ccccc1[N+](=O)[O-]` (centres undefined), the EC50 (with HEK293 [1]; in experiment [4]) was > 20 µM (inactive) each time. Further, the IC50 – broadly, the point on the concentration scale where inhibition reaches its midpoint – in the experiment with HEK293 [2] was 3.59 µM (active); with HEK293 [3] it was > 20 µM (inactive); in the experiment with HEK293 [5], 4.85 µM (inactive); with HEK293 [6], > 20 µM (inactive); in the experiment on Vero [8], 13.3 µM (active). Also, the concentration at half-maximal activity (AC50) (in general, the midpoint of the concentration-response curve, whichever way the signal moves) in experiment [7] is 7.92 µM (active); in the experiment on A-375 [9], 31.9 µM (active). Also, the cytotoxic concentration (CC50) (as a rule, the concentration at which the toxic effect on the cells reaches its halfway point) in the experiment on Vero [10] is 15.6 µM (active).

Regarding `CC(C)(C)c1ccc(-c2cc(N)[nH]n2)cc1`, the concentration for a half-maximal effect (EC50) (usually the concentration at which the effect is half-maximal) in experiment [11] is < 100 nM (active); in experiment [12] it was 403 nM (active); in “cells” it was 1.34 µM (active); in experiment [13], 7.28 µM (active); in experiment [14], < 100 nM (active); in experiment [15], 677 nM (active). In addition, the results for the AC50 (in experiment [7]; with A-375 [9]; with A-375 [17]) were 0.511 µM (active), > 35 µM (active) and > 35 µM (active), respectively. Besides, the IC50 in [16] was > 80 µM (inactive).

Turning to `CN1C(=O)C(Cl)(Cl)C(=O)c2ccccc21`, the figures for the IC50 in experiment [18] and in experiment [19] were 34.5 µM (active) and 2.75 µM (active), respectively.

Consider `COc1ccc(S(=O)(=O)N2CCN(CC(=O)Nc3cccc(OC)c3)CC2)cc1`, for which the half-inhibitory concentration (IC50) in [20] and in experiment [21] was > 43.8 µM (not active) in each case.

For the compound `CC(C)c1ccc(/C=C2\SC(=S)N(CCC(=O)NCCCn3ccnc3)C2=O)cc1`, the AC50 at CAAX prenyl protease 2 is > 100 µM (inactive). Moreover, in experiment [16], the IC50 is > 80 µM (inactive).

As for `CC1CCCCN1C(=O)Cn1c(=O)n(-c2ccc(F)cc2)c(=O)c2sccc21` (centres undefined), the IC50 in experiment [22] is 50 µM (inactive).

Take `O=C(CNc1ccncc1)c1ccc(O)c(O)c1`: the IC50 in experiment [23] and in experiment [24] was > 100 µM (inactive) each time.

These data come from ChEMBL document CHEMBL1201862, “PubChem BioAssay data set” (2004).
